Reference: patent US11400054B2, “Method for treating an autoimmune neurological disease and/or neurodegenerative disease and pharmaceutical formulations for a liquid dosage form and a controlled release dosage form” (INDUSTRIAL TECHNOLOGY RESEARCH INSTITUTE, priority 2017, dated 2022)

Key:
[1] = tested on: LPS-induced IL-6 expression in BV-2 cells; assay: LPS-induced IL-6 expression in BV-2 cells (IL-6 ELISA); format: cell-based; conditions: Mus musculus, compound 1 hour then LPS 100 ng/mL, 24 hours
Procedure: (§1) BV-2 cells (8×10^3 cells/mL) were seeded in a 96-well plate cultured under 37° C., 5% CO2 overnight. The cells were divided into a naïve group (without any treatment), a control group (only treated with LPS) and experimental groups (treated with LPS and a testing compound).
(§2) The supernatant in the well was removed. After that, different concentrations of a testing compound was added to the cells to react with the cells for 1 hour (culture medium was added to the cells for a control group), and then LPS (100 ng/mL) was added to the cell.
After reacting for 24 hours, the supernatant in the plate was taken and IL-6 expressing amount was detected by Mouse IL-6 ELISA Ready-SET-Go (Invitrogen; Cat. No. 88-7064-88) according to the manufacturer's recommended procedure.
(§3) CC50 value for cell viability of a testing compound and IC50 value for IL-6 expression of a testing compound were calculated based on cell viabilities at different concentrations of the testing compound and IL-6 expression amounts of the cells at different concentrations of the testing compound, respectively.

[2] = tested on: MOG induced IL-2 secretion in splenocyte; assay: MOG induced IL-2 secretion in splenocyte isolated from mice of EAE model (ELISA); format: cell-based, C57BL/6 mice; conditions: Mus musculus, 20 μg/ml MOG peptide, 48 hours; for inhibition at 300 µM: concentration 300 μM; for inhibition at 100 µM: concentration 100 μM; for inhibition at 200 µM: concentration 200 μM
Procedure: (§4) EAE was induced in C57BL/6 mice. The mice were immunized on Day 0 by subcutaneous injection with 200 μg of myelin oligodendrocyte glycoprotein (MOG) in […] containing 400 μg of heat-killed Mycobaterium tuberculosis H37Ra. Pertussis toxin (500 ng) was intraperitoneally injected on Day 0 and Day 2 after the mice were immunized with the emulsion. The mice were sacrifice on Day 30 post-immunization. Spleens of the mice were harvest and then splenocytes were isolated and cultured in presence or absence of the 20 μg/ml MOG peptide in 10% FBS RPMI1640 medium. Testing compound was added to the culture and maintained at 37° C. 5% CO2 for 48 hours. The concentrations of IFN-γ and IL-2 in the supernatant of the culture were determined by ELISA according to the manufacturer's instructions.

[3] = Cell viability of BV-2 cells (MTT); format: cell-based; conditions: mouse, LPS 100 ng/mL
Procedure: as §1, §2
Moreover, 50 μl of culturing medium containing MTT (0.5 mg/mL) was added to the cell part in the plate and cultured under 37° C. and 5% CO2 for 90 minutes, and then 150 μL DMSO was added to the plate and the plate was shaken for 5-10 minutes. Finally, OD570 was read by a continuous wavelength microplate analyzer, and cell viability was calculated using the following formula: Cell viability (%)=(OD value of the experimental group/OD value of the control group)×100.
as §3

[4] = tested on: MOG induced IFN-γ secretion in splenocyte; assay: MOG induced IFN-γ secretion in splenocyte isolated from mice of EAE model (ELISA); format: cell-based, C57BL/6 mice; conditions: Mus musculus, 20 μg/ml MOG peptide, 48 hours; for inhibition at 300 µM: concentration 300 μM; for inhibition at 100 µM: concentration 100 μM; for inhibition at 200 µM: concentration 200 μM
Procedure: as §4

[5] = tested on: spinal cords of the EAE induced mice; assay: Histology of spinal cord lesions in EAE induced mice (H&E, Luxol fast blue); format: in vivo, C57BL/6 mice; conditions: 100 mg/kg three times a day, day 15 after onset
Procedure: The mice were euthanized at day 15 post to onset of EAE. Spinal cord was removed and fixed in 10% phosphate-buffered formaldehyde. Paraffin-embedded 3 μm-thick cross sections of spinal cord were stained with hematoxylin and eosin in order to confirm tissue lesion. Another slides were stained with Luxol fast blue for examination of demyelination. Lesions were evaluated based on demyelination, inflammation, axonal swelling and gliosis which are scored based on the criteria shown in Table 2: […]

EAE induced mice [6] = assay: Prophylaxis administration experiment in EAE induced mice, EAE score; format: in vivo, C57BL/6 mice; conditions: 100 mg/kg one time a day from Day 7 after induction, 14 days; vs vehicle (FIG. 10)
EAE induced mice [7] = assay: Therapeutic administration experiment in EAE induced mice, EAE score; format: in vivo, C57BL/6 mice; conditions: 14 days after onset

## CC1=CC[C@@H](C(C)(C)O)C[C@@H]1OCc1ccccc1 [TMUS-0503-b1]
[1]
  IC50: < 10 µM
[2]
  inhibition at 300 µM: 15%
[3]
  CC50 at 24 h: > 100 µM
[4]
  inhibition at 300 µM: 20%

## COc1ccc(C(=O)O[C@H]2C[C@H](C(C)(C)O)CC=C2C)cc1 [TMUS-0124-4e]
[1]
  IC50: 50.8 µM
[2]
  inhibition at 100 µM: 59%
[3]
  CC50 at 24 h: > 100 µM
[4]
  inhibition at 100 µM: 86%

## CC1=CCC(C(C)(C)O)CC1=O (stereo not shown) [TMUS-0503-o1]
[1]
  IC50: < 10 µM
[2]
  inhibition at 200 µM: 40%
[3]
  CC50 at 24 h: > 100 µM
[4]
  inhibition at 200 µM: 56%

## CC1=CC[C@@H](C(C)(C)O)C[C@@H]1OC(=O)c1ccc([N+](=O)[O-])cc1 [TMUS-0124-4d]
[1]
  IC50: 48.1 µM
[2]
  inhibition at 200 µM: 22%
[3]
  CC50 at 24 h: > 100 µM
[4]
  inhibition at 200 µM: 79%

## C[C@H]1CC[C@H](C(C)(C)O)C[C@H]1O [TMUS-0503-H3]
[1]
  IC50: 30 to 100 µM
[3]
  CC50 at 24 h: > 100 µM

## CCCCCC(=O)O[C@H]1C[C@H](C(C)(C)O)CC=C1C [TMUS-0124-4f]
[1]
  IC50: 38 µM
[2]
  inhibition at 200 µM: 8%
[3]
  CC50 at 24 h: > 100 µM
[4]
  inhibition at 200 µM: 59%

## CC1=CC[C@@H](C(C)(C)O)C[C@@H]1O [SK2, (−) trans-sobrerol]
[1]
  IC50: 183 ± 21.8 µM
[2]
  inhibition at 200 µM: 0%
[5]; vs vehicle (FIG. 7B)
  axonal swelling in spinal cords: effectively alleviating
[5]; vs vehicle (FIG. 7C)
  inflammation in spinal cords: effectively alleviating
[5]; vs vehicle (FIG. 7D)
  gliosis in spinal cords: effectively alleviating
[5]; vs vehicle (FIGS. 6, 7A)
  demyelination in spinal cords: effectively alleviating
[3]
  CC50 at 24 h: > 200 µM
[4]
  inhibition at 200 µM: 34%
EAE induced mice [6]
  EAE score (symptoms of EAE): significantly alleviating symptoms of EAE
EAE induced mice [7]; 30, 100 mg/kg one time a day, 50, 100 mg/kg BID, 10-100 mg/kg TID, vs vehicle (FIGS. 5A-5C)
  EAE score (symptoms of EAE): significantly alleviating symptoms of EAE

## CC1=CCC(C(C)(C)O)CC1O (stereo not drawn) [SK0, (+)(−) trans-Sobrerol, reference compound]
[2]
  inhibition at 300 µM: 16%
[4]
  inhibition at 300 µM: 10%
EAE induced mice [7]; 100 mg/kg one time a day, 15, 50, 100 mg/kg BID, vs vehicle (FIGS. 8A, 8B)
  EAE score (symptoms of EAE): significantly alleviating symptoms of EAE

## CC1=CC[C@H](C(C)(C)O)C[C@H]1O [SK1, (+) trans-Sobrerol]
[2]
  inhibition at 200 µM: 0%
[4]
  inhibition at 200 µM: 24%

## CC1CCC(C(C)(C)O)CC1=O (stereo not shown) [TMUS-0503-H2]
[1]
  IC50: < 10 µM
[2]
  inhibition at 100 µM: 16%
[3]
  CC50 at 24 h: > 100 µM
[4]
  inhibition at 100 µM: 33%

## CO[C@H]1C[C@H](C(C)(C)O)CC=C1C [TMUS-0503-m1]
[1]
  IC50: < 10 µM
[2]
  inhibition at 100 µM: 21%
[3]
  CC50 at 24 h: > 100 µM
[4]
  inhibition at 100 µM: 17%

## CC1=CC[C@@H](C(C)(C)O)C[C@@H]1OC(=O)CCc1ccccc1 [TMUS-0124-4c]
[1]
  IC50: 38.2 µM
[2]
  inhibition at 200 µM: 23%
[3]
  CC50 at 24 h: > 100 µM
[4]
  inhibition at 200 µM: 78%

## CC1(C)OC2CC1CC1OC21C (stereo not shown) [TMUS-0503-c2]
[1]
  IC50: 30 to 100 µM
[2]
  inhibition at 100 µM: 13%
[3]
  CC50 at 24 h: > 100 µM
[4]
  inhibition at 100 µM: 31%

## C[C@@H]1CC[C@H](C(C)(C)O)C[C@H]1O [TMUS-0503-H4]
[1]
  IC50: 30 to 100 µM
[2]
  inhibition at 300 µM: 19%
[3]
  CC50 at 24 h: > 100 µM
[4]
  inhibition at 300 µM: 42%

## CC1=CCC2CC1OC2(C)C (stereo not shown) [TMUS-0503-c1]
[1]
  IC50: 30 to 100 µM
[2]
  inhibition at 300 µM: 22%
[3]
  CC50 at 24 h: > 100 µM
[4]
  inhibition at 300 µM: 23%
